This is an account of results in US7816330B2, “Substituted benzimidazole-, benztriazole-, and benzimidazolone-O-glucosides” (Janssen Pharmaceutica NV, priority 2003, dated 2010).

pIC50: −log10 of the molar value.

One assay addresses T1, human SGLT2 (Homo sapiens, UniProt P31639).
T1 construct: expressed in transfected cells; pcDNA vector)
T1 sequence (P31639 1-672): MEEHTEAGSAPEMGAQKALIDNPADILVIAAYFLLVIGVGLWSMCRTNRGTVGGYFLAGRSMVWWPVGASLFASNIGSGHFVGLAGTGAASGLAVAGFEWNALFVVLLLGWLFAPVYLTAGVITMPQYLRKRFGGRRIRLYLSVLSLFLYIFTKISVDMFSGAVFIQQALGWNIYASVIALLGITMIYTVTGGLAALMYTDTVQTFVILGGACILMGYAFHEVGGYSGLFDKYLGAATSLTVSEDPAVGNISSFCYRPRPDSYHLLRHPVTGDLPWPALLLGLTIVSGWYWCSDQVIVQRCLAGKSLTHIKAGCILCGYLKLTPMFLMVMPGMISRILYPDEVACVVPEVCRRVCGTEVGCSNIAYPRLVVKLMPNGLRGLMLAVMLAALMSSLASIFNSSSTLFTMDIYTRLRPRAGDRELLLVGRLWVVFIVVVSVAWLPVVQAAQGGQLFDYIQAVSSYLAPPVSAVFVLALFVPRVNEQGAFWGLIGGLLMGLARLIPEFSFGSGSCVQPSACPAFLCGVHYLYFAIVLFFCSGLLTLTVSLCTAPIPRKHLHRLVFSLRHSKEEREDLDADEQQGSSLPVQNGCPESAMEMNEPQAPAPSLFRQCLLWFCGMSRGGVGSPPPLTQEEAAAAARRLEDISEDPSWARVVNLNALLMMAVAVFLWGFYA
As to the kind of experiment: Cell-based assay for sodium-dependent glucose transport (14C-AMG uptake), CHOK-SGLT2. The settings on record: CHO-K1 cells stably expressing human SGLT2, Na-dependent 14C-AMG uptake; for inhibition at 10 µM: read-out: CHOK-SGLT2 % Inh. @10 μM. On the procedure:
(§1) Cloning of the human SGLT1 and human SGLT2 cDNAs and construction of the mammalian expression vector: The human SGLT1 cDNA (Genbank M24847) was cloned from human small intestine. Human SGLT2 cDNA (Genbank M95549) was cloned from human kidney. Both full cDNAs were subcloned into pcDNA and sequenced to verify the integrity of the construct.
(§2) Generation of CHO-K1 cells stably expressing human SGLT1 or human SGLT2: Transfection of CHO-K1 cells was performed using DMRIE-C reagent (Life Technologies, Gaithersburg, Md.). Transfectants were then selected in the presence of the antibiotic G418 (Gibco-BRL, Grand Island, N.Y.) at 400 μg/ml. Individual clones were then characterized using the functional assay described below.
(§3) Cell-based assay for sodium-dependent glucose transport: Cell lines stably expressing human SGLT1 or SGLT2 were then used for functional analysis of Na+-dependent glucose uptake. Briefly, cells were plated at a density of 65,000 cells per well in a 96-well plate and allowed to grow for 48 hours. Cells were subsequently washed one time with Assay Buffer (50 mM HEPES pH 7.4, 20 mM Tris, 5 mM KCl, 1 mM MgCl2, 1 mM CaCl2 and 137 mM NaCl) and treated with compound in the absence or presence of NaCl for 15 minutes. Cells were then labeled with ^14C-α-methylglucopyranoside (AMG, Sigma, St. Louis, Mo.), a non-metabolizable glucose analog specific for sodium-dependent glucose transporters as previously described (Peng, H. and Lever J. E. Post-transcriptional regulation of Na^+/glucose cotransporter (SGLT1) gene expression in LLC-PK1 cells. J Biol Chem 1995; 270:20536-20542.). After 2 hours the labelled cells were washed three times with ice-cold PBS. After aspiration, cells were solubilized using Microscint 20 (Packard, Meriden, Conn.) and Na-dependent ^14C-AMG uptake was quantified by measuring radioactivity. Plates were counted in a TopCount (Packard, Meriden, Conn.). Results are reported as the % inhibition or IC50 value from a representative experiment. Variability for the functional assay was typically within 20%.

Another assay deals with T2, human SGLT1 (Homo sapiens, UniProt P13866).
T2 construct: expressed in transfected cells; pcDNA vector)
T2 sequence (P13866 1-664): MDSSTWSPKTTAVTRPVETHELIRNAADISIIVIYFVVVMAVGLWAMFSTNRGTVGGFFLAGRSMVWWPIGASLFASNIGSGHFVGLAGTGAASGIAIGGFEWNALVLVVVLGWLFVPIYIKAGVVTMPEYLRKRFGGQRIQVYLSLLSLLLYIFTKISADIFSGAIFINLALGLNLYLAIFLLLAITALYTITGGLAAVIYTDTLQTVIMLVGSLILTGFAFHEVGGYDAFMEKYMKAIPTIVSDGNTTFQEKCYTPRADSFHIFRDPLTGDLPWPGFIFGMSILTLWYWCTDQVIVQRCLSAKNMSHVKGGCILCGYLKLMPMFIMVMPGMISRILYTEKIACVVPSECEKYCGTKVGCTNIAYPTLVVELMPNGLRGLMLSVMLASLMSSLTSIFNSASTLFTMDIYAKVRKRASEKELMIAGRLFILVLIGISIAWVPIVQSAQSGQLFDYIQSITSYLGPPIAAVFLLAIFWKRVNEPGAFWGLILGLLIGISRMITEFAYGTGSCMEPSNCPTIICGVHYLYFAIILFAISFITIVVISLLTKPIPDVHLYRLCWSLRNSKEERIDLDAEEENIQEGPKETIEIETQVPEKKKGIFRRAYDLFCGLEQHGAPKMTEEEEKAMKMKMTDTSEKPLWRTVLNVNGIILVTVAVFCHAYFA
In words: Cell-based assay for sodium-dependent glucose transport (14C-AMG uptake), CHOK-SGLT1. The settings on record: CHO-K1 cells stably expressing human SGLT1, Na-dependent 14C-AMG uptake; for inhibition at 10 µM: read-out: CHOK-SGLT1 % Inh. @10 μM. On the procedure:
as §1, §2, §3

With `COc1ccc(CCn2nnc3cccc(OC4OC(CO)C(O)C(O)C4O)c32)cc1` [Example 9, 2-{3-[2-(4-methoxy-phenyl)-ethyl]-3H-benzotriazol-4-yloxy}-β-D-glucopyranoside], at human SGLT2, the pIC50 (in general, the IC50 on a negative log10 scale, so that one unit is a factor of ten) was 6.41. Further, the inhibition at 10 µM on human SGLT1 was 40%.
With `COc1ccc(CCn2c(=O)[nH]c3cccc(OC4OC(CO)C(O)C(O)C4O)c32)cc1` (stereo not drawn) [Example 6], the inhibition at 10 µM at human SGLT2 stood at 18%.
For the compound `OCC1OC(Oc2cccc3ncn(CCc4ccc5ccccc5c4)c23)C(O)C(O)C1O` [Example 2, 2-[3-(2-naphthalen-2-yl-ethyl)-3H-benzoimidazol-4-yloxy]-β-D-glucopyranoside], the pIC50 against human SGLT2 was 6.48. Further, the inhibition at 10 µM on human SGLT1 was 55%.
As to `O=c1[nH]c2cccc(OC3OC(CO)C(O)C(O)C3O)c2n1CCc1ccc2ccccc2c1` [Example 1, 2-[3-(2-Naphthalen-2-yl-ethyl)-1,3-dihydro-benzoimidazol-2-one-4-yloxy]-β-D-glucopyranoside], the inhibition at 10 µM at human SGLT2 stood at 31%.
With `CCc1ccc(Cn2nnc3cccc(OC4OC(CO)C(O)C(O)C4O)c32)cc1` [Example 10, 2-[3-(4-Ethyl-benzyl)-3H-benzotriazol-4-yloxy]-β-D-glucopyranoside], the results for the pIC50 at human SGLT2 and on human SGLT1 were 8.10 and 6.23, respectively.
As to `COc1ccc(CCn2cnc3cccc(OC4OC(CO)C(O)C(O)C4O)c32)cc1` [Example 5, 2-{3-[2-(4-Methoxyphenyl)-ethyl]-3H-benzoimidazol-4-yloxy}-β-D-glucopyranoside], at human SGLT2, the pIC50 was 6.44. Moreover, the inhibition at 10 µM at human SGLT1 was 61%.
For `OCC1OC(Oc2cccc3ncn(CCc4ccc5c(c4)CCO5)c23)C(O)C(O)C1O` (stereo not drawn) [Example 7, 2-{3-[2-(2,3-Dihydro-benzofuran-5-yl)-ethyl]-3H-benzoimidazol-4-yloxy}β-D glucopyranoside], the results for the pIC50 against human SGLT2 and against human SGLT1 were 7.42 and 6.15, respectively.
On to `CCc1ccc(Cn2cnc3cccc(OC4OC(CO)C(O)C(O)C4O)c32)cc1` [Example 4, 2-[3-(4-Ethyl-benzyl)-3H-benzoimidazol-4-yloxy]-β-D-glucopyranoside], for which the results for the negative-log IC50 (pIC50) against human SGLT2 and against human SGLT1 were 7.80 and 5.95, respectively.
For the compound `CCc1ccc(Cn2c(=O)[nH]c3cccc(OC4OC(CO)C(O)C(O)C4O)c32)cc1` [Example 3, 2[3-(4-Ethyl-benzyl)-1,3-dihydro-benzoimidazol-2-one-4-yloxy]-β-D-glucopyranoside], on human SGLT2, the pIC50 is 5.99. Besides, on human SGLT1, the inhibition at 10 µM was found to be 1%.
With `CCc1ccc(Cn2cnc3cc(C)cc(O[C@@H]4O[C@H](CO)[C@@H](O)[C@H](O)[C@H]4O)c32)cc1` [Example 8, 2-[3-(4-Ethyl-benzyl)-6-methyl-3H-benzoimidazol-4-yloxy]-β-D-glucopyranoside], the results for the pIC50 against human SGLT2 and against human SGLT1 were 7.21 and 5.95, respectively.
